Reference: patent US6682914B2, “Bioactive tetracyclic diterpene compounds and methods of preparation and use thereof” (Universidad del Pais Vasco/Euskal Herriko Unibersitatea, priority 2001, dated 2004)

Tested on: Aspergillus nidulans
Assay: Conidiation-inducing bioassay modified for Aspergillus (conidiophores per mycelial pellet)
Type: cell-based
Settings: control at least 28 hours
Description: Assays were carried out in shaken flask cultures using 25 mL. […] Determination of conidiation inducing activity was followed by microscopic observation of mycelium samples taken at different times. For these purposes, conidiation time was defined as the time at which 50% of the hyphal tips attained the final stage of conidiation (conidia-bearing tips), according to previously established criteria (Ugalde and Pitt, 1983), namely, the direct microscopic observation of three separate groups of 500 hyphal tips, and the determination of the proportion of hyphal tips in each group which bear conidia.
The bioassay procedure described above was used to assess qualitatively in other filamentous fungi, in particular, those of the genus Aspergillus, the conidiation-inducing activity of the compounds that were extracted, isolated and purified from Penicillium cyclopium in accordance with Example 1. […] Thus, the criteria employed to determine the time of conidiation in these cases was the appearance of at least two conidiophores (the specific phialide bearing structure for this genus) on average per mycellial pellet, measured from a minimum of 10 pellets.

SMILES | time of incubation to positive conidiogenic activity (at least two conidiophores per mycelial pellet) (100 ng/mL in culture medium) | time of incubation to positive conidiogenic activity (at least two conidiophores per mycelial pellet) (25-50 ng/mL in culture medium)
CC1C(O)CC(O)C2(C)CCC3C4C(C)(C)CCC4(C)CC132 (stereo not drawn) [conidiogenol, (1R*, 3R*, 7R*, 8S*, 11R*, 12R*, 14S*, 15R*)-3,6,6,11,15-pentamethyl-tetracyclo[9.4.0.0^1,8.0^3,7]-pentadecan-12,14-diol] | 22 h | –
CC1C(O)CC(=O)C2(C)CCC3C4C(C)(C)CCC4(C)CC132 (stereo not drawn) [conidiogenone, (1R*, 3R*, 7R*, 8S*, 11R*, 14S*, 15R*)-14-Hydroxy-3,6,6,11,15pentamethyl-tetracyclo[9.4.0.0^1,8.0^3,7]-pentadecan-12-one] | – | 22 h
